The values below are quoted from earlier work in US12728162B2, “Methods of treating lung cancer with a PD-1 axis binding antagonist, a platinum agent, and a topoisomerase II inhibitor” (Genentech, Inc., priority 2018, dated 2026).

As to `[NH3+][Pt-2]1([NH3+])[O]C(=O)C2(CCC2)C(=O)[O]1` [Carboplatin, platinum, diammine [1,1-cyclobutanedicarboxylato (2-)-O,O′]—, (SP-4-2)], the “solubility in organic solvents” value (ethanol, acetone, and dimethylacetamide) is “virtually insoluble”. Further, the solubility in water entry (water) is reported as “approximately 14 mg/mL”.
